Literature values in patent US11576886B2, “Constructs comprising fatty acids” (POLYREM LIMITED, priority 2017, dated 2023).

Tested on: Wnt/β-catenin signalling

Q: For CNCCC(Oc1ccc(C(F)(F)F)cc1)c1ccccc1 (centres unmarked) [Fluoxetine], which Wnt/β-catenin signalling is on record?
A: increase Wnt/β-catenin signalling

Q: Which Wnt/β-catenin signalling does the source give for COCCCC/C(=N\OCCN)c1ccc(C(F)(F)F)cc1 [Fluvoxamine] here?
A: increase Wnt/β-catenin signalling

Q: For O=C(CCCN1CCC(O)(c2ccc(Cl)cc2)CC1)c1ccc(F)cc1 [Haloperidol], which Wnt/β-catenin signalling is on record?
A: increase Wnt/β-catenin signalling

Q: For Cc1nc2n(c(=O)c1CCN1CCC(c3noc4cc(F)ccc34)CC1)CCCC2 [Risperidone], which Wnt/β-catenin signalling is on record?
A: increase Wnt/β-catenin signalling

Q: Which Wnt/β-catenin signalling does the source give for COc1ccc(C(CN(C)C)C2(O)CCCCC2)cc1 (centres unmarked) [Venlafaxine] here?
A: increase Wnt/β-catenin signalling
